According to the NIST ThermoML archive (doi:10.1016/j.jct.2015.08.014):

Assay: xn = mol fraction of the nth substance listed
Conditions: 100 kPa, Liquid; for electrical conductivity: Alternating current cell with electrodes; for mass density: Vibrating tube method; for viscosity: Capillary tube (Ostwald / Ubbelohde) method

CCCC[N+]1(C)CCCC1.N#CN=C=[N-] [1-butyl-1-methylpyrrolidinium dicyanamide] + O=C1CCCO1
electrical conductivity [S/m], 293.15 K
Conditions	Frequency=0.00652174 MHz	Frequency=0.00694444 MHz	Frequency=0.0075 MHz	Frequency=0.008 MHz	Frequency=0.00857143 MHz	Frequency=0.00892857 MHz	Frequency=0.00961538 MHz	Frequency=0.01 MHz
x1 = 0.0463	–	1.37	1.37	1.37	1.37	1.37	1.37	1.37
x1 = 0.0987	–	2.05	2.05	2.05	2.05	2.05	2.05	2.05
x1 = 0.1449	2.31	2.31	2.31	2.31	2.31	2.31	2.31	2.31
x1 = 0.1859	2.45	2.45	2.45	2.45	2.45	2.45	2.45	2.45
x1 = 0.2493	2.37	2.37	2.37	2.37	2.38	2.38	2.38	2.38
x1 = 0.3029	2.29	2.29	2.29	2.29	2.3	2.3	2.3	2.3
x1 = 0.3845	2.116	2.116	2.116	2.116	2.12	2.12	2.12	2.12
x1 = 0.4985	1.84	1.84	1.84	1.84	1.84	1.84	1.84	1.84
x1 = 0.6954	1.46	1.46	1.46	1.46	1.46	1.46	1.46	1.46
x1 = 0.9013	1.19	1.19	1.19	1.19	1.19	1.19	1.19	1.19
x1 = 1	1.123	1.123	1.123	1.123	1.123	1.124	1.124	1.124

Conditions	electrical conductivity, 298.15 K [S/m]	mass density, 293.15 K [kg/m3]	viscosity, 298.15 K [mPa·s]
x1 = 0.0463	1.47	–	–
x1 = 0.0987	2.21	1107.56	2.8
x1 = 0.1449	2.51	–	–
x1 = 0.1859	2.67	1091.31	4.02
x1 = 0.2493	2.613	–	–
x1 = 0.3029	2.54	1073.37	6.19
x1 = 0.3845	2.36	–	–
x1 = 0.4985	2.08	1050.78	–
x1 = 0.6954	1.68	1034.23	–
x1 = 0.9013	1.39	1021.32	–
x1 = 1	1.317	1016.28	–
